Laboratory results published in US6420120B1, “Use of a polypeptide as cell receptor for adenoviruses” (priority 1997, dated 2002).

Experiments:
Assay in all cases: Bifunctional ligand: Ad5Luc3 attachment to peptide-pretreated cells, luciferase activity
Conditions in all cases: 500 μM peptide, 1 h at 0-4° C. before Ad5Luc3
[1] = test system: NIH-3T3 cells; type: cell-based, murine
Procedure: (§1) The human cells (HeLa) or murine cells (Swiss-3T3 or NIH-3T3, ATCC CRL-1658) are rinsed and incubated between 0 and 4° C. with an isotonic solution (PBS) containing 500 μM of peptide. After 1 h, the solution is removed and replaced with the viral inoculum (Ad5Luc3) according to a protocol already described (see above or Hong et al., 1997, EMBO J. 16, 2294-2306). The virus is incubated for 1 hour between 0 and 4° C. to allow its attachment, and then the excess nonadsorbed virus is rinsed with culture medium precooled to 4° C. and the cells are again placed at 37° C. in the presence of culture medium preheated to 37° C. The virus is endocytosed at 37° C. and the viral cycle then lasts for 18 to 20 h at 37° C.

[2] = test system: Swiss-3T3 cells; type: cell-based, murine
Procedure: as §1

[3] = test system: HeLa cells; type: cell-based, human
Procedure: as §1

Substance | increase in the luciferase activity (number of adsorbed viruses) versus no peptide [1] | increase in the luciferase activity (number of adsorbed viruses) versus no peptide [2] | increase in the luciferase activity (number of adsorbed viruses) versus no peptide [3]
MH20-GRP: bifunctional peptide, MH20 at N-terminus fused to GRP (Gastrin Releasing Peptide), SEQ ID No: 22 (RAIVGFRVQWLRRYFVNGSRKMYPRGNHWAVGHLM; listed as Homo sapiens) | identical slope | identical slope | identical slope
GRP-MH20: bifunctional peptide with reverse orientation, GRP at N-terminus and MH20 at C-terminus, SEQ ID No: 23 (KMYPRGNHWAVGHLMRAIVGFRVQWLRRYFVNGSR; listed as Homo sapiens) | eight to ten times | two to three times | five to six times
